# From patent publication EP1785417A2, “Novel non-psychotropic cannabinoids” (priority 2000, dated 2001)
# pIC50: −log10 of the molar value. Where two headings read alike, the source gives them in different places.
# Tests used:
# [1] = system: transient middle cerebral artery occlusion in rats; test: Transient middle cerebral artery occlusion (MCAo), infarct size evaluation; type: in vivo; details: IV, one week after the ischemic insult
# Description: Experimental design. The design was a randomized one, performed in a masked fashion as to whether drug or vehicle was being given, and an attempt was made to generate approximately equal numbers of drug- and vehicle-treated animals.
# • a. Male rats (8 /treatment group) 320-380 gr. (Harlan Israel). • b. Halothane (Rhone Poulenc France) • c. Pentobarbitone (Pental Veterinary, CTS Israel). • d. Poly - L - Lysine (Sigma, USA). • e. Silk suture material 3-0 and 4-0. • f. Nylon (Polyamid) suture material 3-0. Four cm pieces were cut and positioned in a solution of 1% Poly - L - Lysine for 1 minute and dried in an oven (60 ° C) for 60 minutes. The tip of each piece was rounded under a flame. • g. Saline (Teva Medical). • h. Blank cremophor ethanol cosolvent (Pharmos). • i. Dexanabinol in cremophor ethanol cosolvent 50 mg/ml. (Both Dexanabinol and its vehicle were diluted in saline prior to drug administration. • j. Analogs PRS-211,092, PRS-211,095, PRS-211,128 PRS-211,132 and PRS-211,220 in cremophor ethanol cosolvent, 50 mg/ml. • k. The analogs were diluted in saline prior to drug administration.
# • a. Surgical details of the MCAo method used for testing dexanabinol analogs, are presented in Belayev, et al., (Belayev, Busto, Weizhao, and Ginsberg, Stroke 26:2313-2319, 1995) which is incorporated herein in its entirety by reference. • b. Two hours after the start of MCAO, the animals were reanesthetized with halothane, the neck wound was re-opened and the nylon thread pulled out of the Internal carotid artery (ICA). The skin wound was then closed with 3-0 silk suture material and the animals allowed to recover from the anesthesia. • c. Three sets of animals were tested. In the first test immediately (2+0 hours) before thread removal the animals were injected IV with either analogs PRS-211,095, PRS-211,128, PRS-211,132, or Dexanabinol (PRS-211,007) each at a dosage of 5 mg/kg. One group of animals was treated with 5ml/kg vehicle alone. In another group, the animals subjected to "sham" operation, the suture was passed into the ICA, as described above, but immediately withdrawn. In the second set dexanabinol, PRS-211,092, PRS-211,095 and PRS-211,220 were used, at 2+0 hours. In the third set dexanabinol, PRS-211,092, PRS-211,095 and PRS-211,220 were administered 1 hour after thread removal (2+1 hours). Laser Doppler Flow (LDF) determined the success of MCAo - a drop of more then 50% in cerebral blood flow was considered as a sign of successful MCAo. Although LDF was a helpful corroborative sign, clinical outcome remained the final inclusion/exclusion criterion, since, with the exception of the PRS-211,220 staircase study, LDF was introduced only after initiation of the study.
# A detailed investigation of neurological performance was carried out on the first, third and the 7th day after the MCAo. Two parameters were examined: posture and the flexion reflex (based on Nokon and Chuang, NeuroReport 9, 1998: 2081-2084). Animals were scored according to their performance:
# One week after the ischemic insult, animals were euthanized with pentobarbitone 100 mg/kg IP. The animals were perfused through the heart with heparinized 4% formaldehyde solution in PBS (pH 7.4). Brains were then removed, and kept in the same solution before preparation for histological evaluation of the brain infarct volume.
# [2] = system: PGE2; test: Inhibition of prostaglandin synthesis (PGE2) in LPS-stimulated macrophage cell cultures; type: cell-based; details: LPS-stimulated macrophages
# Description: (§1) Evaluation of the therapeutic effects of the novel PRS-211 compounds has now been carried out in a series of experimental systems to support the utility of these drugs as neuroprotectants, anti-inflammatory agents and anti-oxidative agents. These effects have been evaluated both in vitro and in vivo, and have been corroborated utilizing the following systems: • (a) Binding to the NMDA receptor linked channel: Non competitive antagonists of NMDA, the primary example of which is the compound MK-801, bind to a site within the NMDA receptor channel thus preventing the activation of the receptor-channel complex and the consequent neurotoxicity. The ability of various compounds to compete with the binding of tritium labeled MK-801 to brain membranes is considered a measure of their potency as NMDA non-competitive antagonists. • (b) Inhibition of prostaglandin production: The inhibitory effect of the new derivatives of Dexanabinol on prostaglandin synthesis is evaluated in macrophage cell cultures following LPS exposure to induce the inflammatory response. These assays are an indication of the anti-inflammatory activity of the individual analogs. • (c) Inhibition of Tumor Necrosis Factor Alpha: Specific aspects of the inflammatory response cascade are mediated by the cytokine TNFα. Inhibition of TNFα production and/or inhibition of TNFα release by the new analogs are assayed in macrophage cell cultures activated with LPS. This serves as another indication of the general anti-inflammatory potential of the novel compounds. • (d) Nitric Oxide Assay: As one aspect of the anti-oxidative potential of the novel analogs they were tested for their ability to inhibit the enzyme nitric oxide synthase (NOS). This assay can also serve as another indication of the anti-inflammatory cascade, as well as the anti-oxidative mechanisms. • (e) Ear Edema model: The anti-inflammatory activity of the new analogs is screened using an ear edema model in mice. This test system utilizes Croton oil or Arachidonic acid as inflammation inducers. The ability of the test compounds to prevent or diminish the inflammatory response to these stimulants is indicative of their systemic anti-inflammatory capability. • (f) Improved clinical outcome after closed head injury in rats: Severe head injury is associated with high mortality and severe neurological impairment. Animals subjected to head trauma in a controlled fashion serve as models in which to test drugs of therapeutic potential. Test compounds can be evaluated both for improved clinical outcome and for reduction of edema induced by closed head injury. The ability of compounds to reduce the severity of neurological symptoms and to reduce brain edema is considered a measure of their potency in reducing brain damage. • (g) Transient Middle cerebral artery occlusion (MCAo): The middle cerebral artery is the cerebral blood vessel most susceptible to stroke in humans. In animals, coagulation, permanent ligation or permanent placement of an occluding thread in the artery produces a permanent focal stroke affecting the MCA territory. Transient ligation or occlusion results in transient focal stroke. Both transient and permanent focal strokes result in varying degrees of edema and infarction in the affected brain regions. The ability of compounds to reduce the volumes of edema and infarction is considered a measure of their potential as anti-stroke treatment. • (h) Optic Nerve Crush: Application of mechanical pressure to the rat optical nerve results in crush injury of the axons, which is accompanied by immediate changes in oxidative metabolism and delayed axonal death and blindness. […]
# [3] = system: Nitric Oxide Synthase (NOS); test: Inhibition of nitric oxide synthase (nitrite fluorimetric assay, LPS-stimulated macrophage cultures); type: cell-based; details: LPS-stimulated macrophages
# Description: as §1
# [4] = system: NMDA receptor; test: Radioligand binding: displacement of [3H]MK-801 from rat forebrain membranes; details: for NMDA receptor binding / affinity: MK-801 binding to membranes
# Description: as §1
# [5] = system: ear edema model in mice; test: Ear edema model; type: in vivo; details: Mus musculus, Croton oil (CO) as inducer, IP
# Description: as §1
# [6] = system: TNFα; test: Inhibition of TNFα in LPS-stimulated macrophage cell cultures (ELISA); type: cell-based; details: LPS-stimulated macrophages
# Description: as §1
# [7] = system: rat model of myocardial ischemia; test: Rat model of myocardial ischemia and reperfusion; type: in vivo, rats; details: given 15 minutes before occlusion; 45 minutes occlusion, 4 hours reperfusion; versus vehicle
# [8] = system: transient MCAo in rats; test: Transient MCAo evaluated by the staircase test; type: in vivo
# Description: The materials for this procedure are identical to those from Physiological Example 5, except for the different concentrations of PRS-211,095. The procedural differences are as follows: • Male Sprague Dawley rats, 230-270 gr (Harlan, Israel) were used. The following compounds and their respective concentrations were tested: • Dexanabinol and analogs PRS-211,095 and PRS-211,220 in PEG ethanol cosolvent 50 mg/ml. Dexanabinol, the analogs and their vehicle were diluted in Intralipid® 20% (Pharmacia) prior to drug administration.
# The procedure is essentially as described in Montoya et al. (Montoya, Campbell-Hope, Pemberton and Dunnet, J. Neurosci. Meth. 36:219-228, 1991) Animals were kept under mild food deprivation for 3-5 days, receiving 15-gr. food once a day (between 16:00 and 17:00) and free access to water. Animals were trained prior to the test for 3-5 days according to the protocol of Sharkey et. al. (Sharkey, Crawford, Butcher and Martson, Stroke 27:2282-2286, 1996).
# In brief, the staircase box contains two rows of seven stairs in each. Two 45 mg food pellets were placed on each step. Animals were placed in the box for 15 minutes sessions. At the end of the session the number of eaten (grasped) and displaced pellets was counted and recorded. Animals were tested twice a day, 4 hours apart. The first session was performed between 8-9 AM and second between 12-13 PM. The animals were trained until they grasped (ate) at least 8 pellets from each set of stairs for two consecutive sessions. Up to one week after the end of the successful training session the animals underwent transient MCAo. Transient MCAo was performed in essentially the same manner as described in Physiological example 5 with the following modification at step i: • Two minutes prior to thread removal rats were re-anesthetized and administered IV with Dexanabinol 5mg/kg, analogs PRS-211,220 or PRS-211,095 at 0.5, 2.5, 5 or 10 mg/kg or vehicle 5 ml/kg. One additional group was sham-treated.
# (§2) Animals were allowed to recover from the surgery for five days. The mild food deprivation was re-employed during the days following the ischemic insult. They were tested in the staircase box using the above method for 9-12 days. Animals were weighed twice a week during this period.
# At the end of the evaluation period, animals were euthanized with pentobarbitone 100 mg/kg IP. The animals were perfused through the heart with heparinized 4% formaldehyde solution in PBS (pH 7.4). Brains were then removed, and kept in the same solution for at least 24h. Then the brains - from the rostral side of the cortex to the cerebellum- were sunk in 30% sucrose in PBS, cryosectioned (20 µm), dried and stained with thionin for histological evaluation of the brain infarct volume. Eight sections at the levels of: 3.3;+2.8;+1.8; +0.8; -0.4;-1.4; -2.2; and -3.4 from Bregma were measured (Swanson, Rat Brain Atlas, 1992). Sections were captured by a CCD camera (V-tech MP-470) and image analyzed (Scion image 1.62A). Infarct size was determined from the series of the 8 sections by either calculation of the infarct volume (mm3) by summing the series of mean lesion areas of two adjacent sections multiplied by the distance between them or calculation of the mean infarct size as percentage of the contralateral hemisphere size; calculation of the mean of the surviving ipsilateral side as percentage of the contralateral hemisphere size; calculation of the mean ipsilateral side ventricle as percentage of the contralateral hemisphere ventricle.
# • a. The infarct size was compared using ANOVA (analysis of variance) followed by Duncan's post hoc test. • b. […]
# [9] = Body weight gain during staircase testing after transient MCAo; type: in vivo, rats; details: compared to base line
# Description: as §2
# Animals were kept under mild food deprivation during the staircase testing (except during weekends). Under these conditions, the following results were observed: • Sham and PRS-211,095 10 mg/kg treated rats gained the maximal body weight (15 and 17% respectively compared to base line). […] These differences were not statistically different.
# [10] = displacement of [3H]MK-801, rat forebrain membranes, read-out: NMDA BINDING IC50
smiles,measurement,setting,value
"CCCCCCC(C)(C)c1cc(O)c2c(c1)OC(C)(C)[C@H]1CC=C(CSc3ncc[nH]3)C[C@H]21 (single isomer, unassigned) [211,092-000]",reduction of infarct size,[1],52%
same,inhibition at 10 µM,[2],57%
same,inhibition at 10 µM,[3],0%
same,NMDA receptor binding / affinity,[4],low affinity
same,pIC50,[4]; [10],< 4.30
same,ED50,[5],28 µmol/kg
same,inhibition at 10 µM,[6],22%
same,"infarct size (AN/AR, AN/LV)",[7],clear decrease in infarct size
"CCCCCCC(C)(C)c1cc(O)c2c(c1)OC(C)(C)[C@H]1CC=C(Cn3cccn3)C[C@H]21 [211,220-000, (+)-(3S,4S)-6,6-Dimethyl-(1,1-dimethylheptyl)-1-hydroxy-9-(pyrazolomethyl)-6a,7,10,10a-tetrahydro-6H-dibenzo[b,d]pyran]",inhibition at 10 µM,[2],47%
same,inhibition at 10 µM,[3],11%
same,NMDA receptor binding / affinity,[4],relatively high affinity
same,pIC50,"[4]; [3H]MK-801 binding, text to Figure 2, read-out: mean IC50",6.46
same,pIC50,[4]; [10],6.46
same,"pellet consumption, improvement over vehicle","[8]; 0.1 mg/kg, contralateral",20-30%
same,"pellet consumption, improvement relative to vehicle alone","[8]; 0.5 mg/kg, contralateral, p<0.05",> 60%
same,"potency relative to PRS-211,095 and dexanabinol","[8]; 0.5 mg/kg, session 3 of the staircase",at least 10 times
same,"pellet consumption, improvement over vehicle","[8]; 2.5 mg/kg, contralateral",20-30%
same,"pellet consumption, improvement over vehicle","[8]; 5.0 mg/kg, contralateral",20-30%
same,Mortality Rate(%),"[8]; Table 5, 0.1 mg/kg IV",25%
same,No. Dead Animals,"[8]; Table 5, 0.1 mg/kg IV",4
same,Mortality Rate(%),"[8]; Table 5, 0.5 mg/kg IV",18.75%
same,No. Dead Animals,"[8]; Table 5, 0.5 mg/kg IV",3
same,Mortality Rate(%),"[8]; Table 5, 2.5 mg/kg IV",30.7%
same,No. Dead Animals,"[8]; Table 5, 2.5 mg/kg IV",4
same,Mortality Rate(%),"[8]; Table 5, 5 mg/kg IV",14%
same,No. Dead Animals,"[8]; Table 5, 5 mg/kg IV",2
same,ED50,[5],57 µmol/kg
same,inhibition at 10 µM,[6],11%
same,body weight gain,[9]; 0.1 mg/kg,3%
same,body weight gain,[9]; 0.5 mg/kg,10%
same,body weight gain,[9]; 2.5 mg/kg,5%
same,body weight gain,[9]; 5 mg/kg,4%
